Key:
AR LBD = molecular target: T1, AR LBD (Homo sapiens, UniProt P10275); assay: Biolayer interferometry (BLI) binding to purified AR LBD
T1 construct: The AR LBD (663-919) was fused into the pET50b vector with Nus-tag; Nus-tag (cleaved yes); made in house; host or cells: E. coli BL21 (DE3)
Protocol: in 4 L LB media at 37°C until OD600 arrived to 0.6, then supplemented with 0.5 mM Isopropyl β-D-1-Thiogalactopyranoside (IPTG) and 20 μM DHT. After incubated at 16 °C for 16-18 h, the cells were collected by centrifugation at 3,500 × g for 0.5 h. The cell mass was resuspended in Lysis buffer (20 mM Tris -HCL pH 7.4, 5 mM imidazole,150 mM NaCl, 10% Glycerol, 2 mM Dithiothreitol (DTT) and 10 μM DHT) and lysed at 800 bar for at least 5 cycles. The lysis was centrifugated at 14,000 × g for 0.5 h, and the supernatant was loaded to HisTrap TM […] HP column (#17524802, GE Healthcare), followed by washing and eluting steps using 65 mM imidazole and 300 mM imidazole, respectively.
The elution from Ni-NTA were cut by HRV-3C protease, and further purified by […]
The purified AR LBD protein was biotinylated using EZ-Link™ Sulfo-NHS-LC-LC-Biotin (#A35358, ThermoFisher) in 500 μL phosphate -buffered saline with 0.02% Tween -20 (v/v, PBST) buffer for 2 h at 4 °C. […] The kinetics of the AR LBD and M17-B15 association was evaluated by soaking the AR LBD-loaded sensors into wells containing various concentrations of M17 -B15 (6.25, 12.5, 25, 50, 100 μM) for 60 s, followed by dissociation of M17 -B15 by soaking the sensors in the PBST buffer for 60 s. The kinetics values were calculated by fitting the kinetic data based on a 1:1 binding model using Forté Bio data analysis (v.11.1) software .

[1] = system: DHT-induced AR nuclear translocation in LNCaP cells; assay: Nuclear and cytoplasmic fractionation, AR nuclear translocation; type: cell-based; settings: 10 μM, 10 nM DHT, 16 h
Protocol: h incubation at room temperature, each membrane was further incubated with specific
Lamin B1, #AF1408, Beyotime Biotechnology) and then the corresponding secondary antibody (HRP-conjugated Goat Anti-Rabbit IgG, # D110058, Sangon Biotech). The Image J program was performed for quantitative analysis of the immunoreactive bands.
Extraction of Nuclear and Cytoplasmic Fractions
presence of 10 nM DHT and incubated for 16 h. The NE-PER Nuclear and Cytoplasmic
extraction of nuclear and cytoplasmic proteins according to manufacturer’s protocol.

AR = molecular target: T2, AR (Homo sapiens, UniProt P10275, T878A); assay: AR transcriptional activity assay (LNCaP-ARR2PB-eGFP cells); type: cell-based
T2 construct: The cells of LNCaP-ARR2PB-eGFP were; endogenous in cells; host or cells: LNCaP-ARR2PB-eGFP
T2 sequence (P10275 1-920 T878A): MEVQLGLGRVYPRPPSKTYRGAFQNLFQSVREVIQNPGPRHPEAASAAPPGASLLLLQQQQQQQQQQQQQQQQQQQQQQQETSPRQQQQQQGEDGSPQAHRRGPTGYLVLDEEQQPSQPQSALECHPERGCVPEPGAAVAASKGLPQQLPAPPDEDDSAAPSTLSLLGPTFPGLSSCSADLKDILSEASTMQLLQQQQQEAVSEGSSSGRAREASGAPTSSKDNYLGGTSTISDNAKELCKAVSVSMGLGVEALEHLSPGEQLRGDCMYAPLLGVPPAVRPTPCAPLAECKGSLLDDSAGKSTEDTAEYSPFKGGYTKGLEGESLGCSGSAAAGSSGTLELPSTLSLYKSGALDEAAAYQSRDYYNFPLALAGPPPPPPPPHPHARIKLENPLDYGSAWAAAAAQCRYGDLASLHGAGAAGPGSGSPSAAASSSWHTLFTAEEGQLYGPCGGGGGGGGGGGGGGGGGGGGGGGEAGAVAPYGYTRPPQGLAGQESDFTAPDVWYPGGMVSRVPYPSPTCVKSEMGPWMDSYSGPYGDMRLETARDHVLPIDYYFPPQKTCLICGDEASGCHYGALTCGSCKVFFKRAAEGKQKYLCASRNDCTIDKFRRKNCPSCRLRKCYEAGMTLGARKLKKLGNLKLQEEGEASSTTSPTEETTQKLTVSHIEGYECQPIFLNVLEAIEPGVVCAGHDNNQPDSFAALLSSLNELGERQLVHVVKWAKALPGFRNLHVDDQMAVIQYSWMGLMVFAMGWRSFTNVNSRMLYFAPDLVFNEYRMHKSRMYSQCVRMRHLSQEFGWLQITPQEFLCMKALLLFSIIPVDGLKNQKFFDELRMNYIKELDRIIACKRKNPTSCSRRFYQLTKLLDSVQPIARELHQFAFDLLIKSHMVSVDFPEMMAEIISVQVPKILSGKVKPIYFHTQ
Protocol: University, Hangzhou, China), respectively. […]
AR Transcriptional Activity Assay
The AR transcriptional activities were determined using the constructed LNCaP-ARR2PB-eGFP cell as previously reported.11, 12 The cells of LNCaP-ARR2PB-eGFP were […]
by seeding into a 96 -well plate (3.5× 10^4 cells/well) for 1 day incubation at 37 °C. Then, the cells were treated with 5 nM DHT and various concentrations of compounds (10 μM […]
the fluorescence intensities were determined using a Synergy H1 microplate reader

FL-AR^F876L/T877A = FL-AR^F876L/T877A (Homo sapiens, UniProt P10275, F877L/T878A); assay: Dual-luciferase reporter assay for FL-AR F876L/T877A in PC3 cells
Chain of FL-AR^F876L/T877A (P10275 whole entry F877L/T878A): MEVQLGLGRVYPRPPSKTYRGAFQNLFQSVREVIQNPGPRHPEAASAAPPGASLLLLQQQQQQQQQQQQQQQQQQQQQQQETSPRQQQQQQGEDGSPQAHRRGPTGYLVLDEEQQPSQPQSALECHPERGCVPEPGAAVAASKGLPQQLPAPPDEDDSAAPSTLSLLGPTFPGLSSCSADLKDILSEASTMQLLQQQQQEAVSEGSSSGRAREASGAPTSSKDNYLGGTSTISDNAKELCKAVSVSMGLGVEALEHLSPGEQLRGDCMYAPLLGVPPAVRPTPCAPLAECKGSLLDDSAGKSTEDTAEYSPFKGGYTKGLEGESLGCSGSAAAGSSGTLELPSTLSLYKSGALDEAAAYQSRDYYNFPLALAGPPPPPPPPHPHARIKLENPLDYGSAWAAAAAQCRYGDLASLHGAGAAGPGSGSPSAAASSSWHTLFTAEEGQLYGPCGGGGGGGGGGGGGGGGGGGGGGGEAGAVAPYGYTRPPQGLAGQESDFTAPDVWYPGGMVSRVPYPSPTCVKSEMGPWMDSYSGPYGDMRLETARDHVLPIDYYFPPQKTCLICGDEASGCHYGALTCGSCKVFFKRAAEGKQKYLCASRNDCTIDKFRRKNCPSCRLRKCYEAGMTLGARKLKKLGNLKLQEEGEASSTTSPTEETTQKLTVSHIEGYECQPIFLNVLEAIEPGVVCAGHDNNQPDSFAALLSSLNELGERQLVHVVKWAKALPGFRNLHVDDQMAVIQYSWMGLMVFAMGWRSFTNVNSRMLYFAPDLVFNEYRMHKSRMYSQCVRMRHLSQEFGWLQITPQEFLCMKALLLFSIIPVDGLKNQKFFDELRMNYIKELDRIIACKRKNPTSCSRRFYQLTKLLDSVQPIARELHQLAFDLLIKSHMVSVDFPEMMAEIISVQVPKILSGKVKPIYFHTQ
Protocol: Luciferase Reporter Assays for FL -ARF876L and FL-ARF876L/T877A
constructed on the basis of the human full length wild type AR plasmid pCMV -hAR
transfected with 70 ng/well of FL -AR plasmid together with 24 ng of ARR2PB -Luc, and 5 ng of Renilla. After 1 day incubation at 37 °C , the antagonistic models were employed
After another 24 h incubation, the luciferase activities were determined by the Dual -Glo Luciferase system (#E1910, Promega) according to the

PC3 = assay: MTT cell viability assay, PC3; type: cell-based; settings: 72 h
Protocol: 3-(4,5-dimethythiazol-2-yl)-2,5-diphenyl-2-H-tetrazolium bromide (MTT) colorimetric assay was employed to investigate cell viability. Cells were seeded into 96-well plates with 2-5× 10^3 cells per well (5× 10^3 cells/well for LNCaP, 22RV1, NIH-3T3, GES-1, Chang, […]
NCI-H1299, U2OS, U87) for 1 day incubation at 37 °C. Then, the cells were treated with various concentrations of compounds (22.86 nM - 50 μM) and incubated for 72 h. Then, 10 μl MTT (5 mg/ml) was added into each well and incubated for 4 h. Afterwards, 100 μl of triplex 10% SDS-0.1% HCl-phosophate-buffered saline (PBS) solutions was added into each well and incubated for overnight. The absorbance at 570 nm was measured (Eon, Bioteck, Winooski, VT). […]

T1 sequence (P10275 663-919): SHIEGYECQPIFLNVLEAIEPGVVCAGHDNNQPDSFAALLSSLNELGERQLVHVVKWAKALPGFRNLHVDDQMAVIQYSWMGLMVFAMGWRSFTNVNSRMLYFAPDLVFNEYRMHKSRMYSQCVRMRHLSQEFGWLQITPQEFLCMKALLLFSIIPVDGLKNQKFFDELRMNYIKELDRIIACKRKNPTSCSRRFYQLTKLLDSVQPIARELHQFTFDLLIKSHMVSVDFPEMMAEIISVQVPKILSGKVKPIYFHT

Kd (AR LBD; 1:1 binding model, read-out: equilibrium dissociation constant (KD)): 13200 nM
koff (AR LBD; read-out: Kd (dissociation rate)): 0.033 s⁻¹
IC50 (AR; LNCaP-ARR2PB-eGFP cells, 5 nM DHT, 3 days): 30 ± 10 nM
improvement in AR transcriptional inhibition compared with the original hit M17 (AR; ratio of IC50 values): > 31 fold
IC50 (FL-AR^F876L/T877A): 150 nM
Compound: CC(=O)Cc1nsc(NC(=O)c2cc(-c3cccc(C(F)(F)F)c3)oc2C)n1 [Compound M17-B15]
DHT-induced AR nuclear translocation [1]: inhibit
inhibition on the cell viability of PC3 (PC3): does not show obvious inhibition

From publication PMC10141604, “Small-Molecule Inhibition of Androgen Receptor Dimerization as a Strategy against Prostate Cancer” (ACS Central Science, 2023)
